Measurements reported in the kinase profiling compilation of Christmann-Franck et al. (2016).

How the values were obtained:
Test in all cases: KINOMEscan competition binding
Details in all cases: compound 10.0 µM
SLK (human) = SLK (human) (UniProt Q9H2G2)
SIK3 (human) = SIK3 (human) (UniProt Q9Y2K2)
NLK (human) = NLK (human) (UniProt Q9UBE8)
STK17B (human) = STK17B (human) (UniProt O94768)
CSNK1D (human) = CSNK1D (human) (UniProt P48730)
CDK18 (human) = CDK18 (human) (UniProt Q07002)
ROCK2 (human) = ROCK2 (human) (UniProt O75116)
PRKAA1 (human) = PRKAA1 (human) (UniProt Q13131)
NUAK1 (human) = NUAK1 (human) (UniProt O60285)
CDK17 (human) = CDK17 (human) (UniProt Q00537)
Chain of CDK17 (human) (Q00537 whole entry, looked up): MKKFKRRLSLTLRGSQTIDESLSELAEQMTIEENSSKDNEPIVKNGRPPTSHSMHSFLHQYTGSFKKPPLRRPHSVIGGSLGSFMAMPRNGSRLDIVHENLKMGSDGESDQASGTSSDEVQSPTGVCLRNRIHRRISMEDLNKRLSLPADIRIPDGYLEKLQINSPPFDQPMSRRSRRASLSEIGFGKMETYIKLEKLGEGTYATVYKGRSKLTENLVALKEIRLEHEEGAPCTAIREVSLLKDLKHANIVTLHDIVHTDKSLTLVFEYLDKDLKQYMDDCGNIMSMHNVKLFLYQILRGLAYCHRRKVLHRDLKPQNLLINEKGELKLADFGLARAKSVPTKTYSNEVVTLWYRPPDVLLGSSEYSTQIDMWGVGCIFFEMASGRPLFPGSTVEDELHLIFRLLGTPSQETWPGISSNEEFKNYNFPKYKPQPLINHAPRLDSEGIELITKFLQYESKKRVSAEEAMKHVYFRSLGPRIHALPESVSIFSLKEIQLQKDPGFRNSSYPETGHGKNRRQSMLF

TLK2 (human) = TLK2 (human) (UniProt Q86UE8)
CDC2L2 (human) = CDC2L2 (human) (UniProt Q9UQ88)
IKBKB (human) = IKBKB (human) (UniProt O14920)
CDK3 (human) = CDK3 (human) (UniProt Q00526)
CAMK1D (human) = CAMK1D (human) (UniProt Q8IU85)
STK32B (human) = STK32B (human) (UniProt Q9NY57)
Chain of STK32B (human) (Q9NY57 whole entry, looked up): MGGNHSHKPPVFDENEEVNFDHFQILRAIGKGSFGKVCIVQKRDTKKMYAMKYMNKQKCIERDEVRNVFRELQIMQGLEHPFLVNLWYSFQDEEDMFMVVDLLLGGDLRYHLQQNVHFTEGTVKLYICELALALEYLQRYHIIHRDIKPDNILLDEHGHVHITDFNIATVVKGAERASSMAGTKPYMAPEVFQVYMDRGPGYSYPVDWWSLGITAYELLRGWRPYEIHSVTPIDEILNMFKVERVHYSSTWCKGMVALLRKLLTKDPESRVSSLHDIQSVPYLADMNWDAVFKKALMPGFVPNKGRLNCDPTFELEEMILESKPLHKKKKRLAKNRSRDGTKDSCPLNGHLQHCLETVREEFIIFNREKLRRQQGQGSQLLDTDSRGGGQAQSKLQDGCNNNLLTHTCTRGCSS

FLT3 (human) = FLT3 (human) (UniProt P36888)
CDK11B (human) = CDK11B (human) (UniProt P21127)
[1] = test system: PIK3CA (human), P42336 [Q546K]
EPHA6 (human) = EPHA6 (human) (UniProt Q9UF33)
BMPR1A (human) = BMPR1A (human) (UniProt P36894)
CAMK2B (human) = CAMK2B (human) (UniProt Q13554)
NEK9 (human) = NEK9 (human) (UniProt Q8TD19)
CDC42BPB (human) = CDC42BPB (human) (UniProt Q9Y5S2)
Chain of CDC42BPB (human) (Q9Y5S2 whole entry, looked up): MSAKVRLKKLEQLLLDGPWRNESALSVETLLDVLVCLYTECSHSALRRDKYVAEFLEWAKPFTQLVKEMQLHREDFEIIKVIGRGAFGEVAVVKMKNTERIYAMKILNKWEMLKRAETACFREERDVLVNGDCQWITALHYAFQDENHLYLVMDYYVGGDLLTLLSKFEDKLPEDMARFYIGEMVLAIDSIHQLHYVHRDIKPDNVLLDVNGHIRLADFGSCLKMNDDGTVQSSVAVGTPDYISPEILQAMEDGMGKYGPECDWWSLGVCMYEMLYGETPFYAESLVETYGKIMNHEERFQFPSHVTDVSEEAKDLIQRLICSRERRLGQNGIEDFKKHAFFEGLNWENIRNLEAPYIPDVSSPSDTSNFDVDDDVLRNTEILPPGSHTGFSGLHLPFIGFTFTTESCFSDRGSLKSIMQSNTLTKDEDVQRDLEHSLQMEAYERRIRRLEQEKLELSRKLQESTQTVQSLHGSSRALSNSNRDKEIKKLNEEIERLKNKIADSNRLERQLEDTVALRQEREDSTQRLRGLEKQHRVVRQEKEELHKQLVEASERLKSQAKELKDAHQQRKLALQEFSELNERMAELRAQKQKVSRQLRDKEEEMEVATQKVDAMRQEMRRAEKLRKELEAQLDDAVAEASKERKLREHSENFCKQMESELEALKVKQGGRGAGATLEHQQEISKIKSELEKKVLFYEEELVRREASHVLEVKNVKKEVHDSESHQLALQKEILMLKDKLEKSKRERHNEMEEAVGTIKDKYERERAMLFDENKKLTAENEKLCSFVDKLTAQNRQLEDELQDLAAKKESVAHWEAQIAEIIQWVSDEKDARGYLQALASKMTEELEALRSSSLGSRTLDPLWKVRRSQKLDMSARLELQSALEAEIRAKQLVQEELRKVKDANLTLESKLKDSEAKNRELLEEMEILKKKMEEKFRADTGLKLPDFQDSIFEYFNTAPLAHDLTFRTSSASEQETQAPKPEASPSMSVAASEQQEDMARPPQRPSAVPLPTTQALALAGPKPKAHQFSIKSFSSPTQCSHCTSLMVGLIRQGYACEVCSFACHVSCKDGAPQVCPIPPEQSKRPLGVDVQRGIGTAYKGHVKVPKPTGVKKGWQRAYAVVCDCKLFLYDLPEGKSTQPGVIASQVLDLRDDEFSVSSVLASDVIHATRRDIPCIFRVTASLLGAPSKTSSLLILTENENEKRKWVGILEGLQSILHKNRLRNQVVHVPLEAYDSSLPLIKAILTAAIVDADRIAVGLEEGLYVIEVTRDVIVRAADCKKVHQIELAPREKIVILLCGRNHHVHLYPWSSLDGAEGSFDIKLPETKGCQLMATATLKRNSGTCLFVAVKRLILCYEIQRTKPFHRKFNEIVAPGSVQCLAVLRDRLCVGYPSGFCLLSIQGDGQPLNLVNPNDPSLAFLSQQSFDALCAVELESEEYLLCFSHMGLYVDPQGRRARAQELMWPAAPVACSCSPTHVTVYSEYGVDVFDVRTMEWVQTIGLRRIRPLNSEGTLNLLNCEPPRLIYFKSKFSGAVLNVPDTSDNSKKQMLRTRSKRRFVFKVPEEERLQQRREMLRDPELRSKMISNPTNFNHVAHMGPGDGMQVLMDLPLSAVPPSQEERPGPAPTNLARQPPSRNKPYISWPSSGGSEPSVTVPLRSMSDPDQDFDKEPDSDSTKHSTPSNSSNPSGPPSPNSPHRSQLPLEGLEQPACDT

PHKG1 (human) = PHKG1 (human) (UniProt Q16816)
[2] = test system: FLT3 (human), P36888 [D835H]
NTRK1 (human) = NTRK1 (human) (UniProt P04629)
MET (human) = MET (human) (UniProt P08581)
PLK2 (human) = PLK2 (human) (UniProt Q9NYY3)
ULK2 (human) = ULK2 (human) (UniProt Q8IYT8)
ADCK4 (human) = ADCK4 (human) (UniProt Q96D53)
[3] = test system: EIF2AK4 KD2 (human), Q9P2K8 [S808G]
Chain of EIF2AK4 KD2 (human), Q9P2K8 [S808G] (Q9P2K8 whole entry S808G, looked up): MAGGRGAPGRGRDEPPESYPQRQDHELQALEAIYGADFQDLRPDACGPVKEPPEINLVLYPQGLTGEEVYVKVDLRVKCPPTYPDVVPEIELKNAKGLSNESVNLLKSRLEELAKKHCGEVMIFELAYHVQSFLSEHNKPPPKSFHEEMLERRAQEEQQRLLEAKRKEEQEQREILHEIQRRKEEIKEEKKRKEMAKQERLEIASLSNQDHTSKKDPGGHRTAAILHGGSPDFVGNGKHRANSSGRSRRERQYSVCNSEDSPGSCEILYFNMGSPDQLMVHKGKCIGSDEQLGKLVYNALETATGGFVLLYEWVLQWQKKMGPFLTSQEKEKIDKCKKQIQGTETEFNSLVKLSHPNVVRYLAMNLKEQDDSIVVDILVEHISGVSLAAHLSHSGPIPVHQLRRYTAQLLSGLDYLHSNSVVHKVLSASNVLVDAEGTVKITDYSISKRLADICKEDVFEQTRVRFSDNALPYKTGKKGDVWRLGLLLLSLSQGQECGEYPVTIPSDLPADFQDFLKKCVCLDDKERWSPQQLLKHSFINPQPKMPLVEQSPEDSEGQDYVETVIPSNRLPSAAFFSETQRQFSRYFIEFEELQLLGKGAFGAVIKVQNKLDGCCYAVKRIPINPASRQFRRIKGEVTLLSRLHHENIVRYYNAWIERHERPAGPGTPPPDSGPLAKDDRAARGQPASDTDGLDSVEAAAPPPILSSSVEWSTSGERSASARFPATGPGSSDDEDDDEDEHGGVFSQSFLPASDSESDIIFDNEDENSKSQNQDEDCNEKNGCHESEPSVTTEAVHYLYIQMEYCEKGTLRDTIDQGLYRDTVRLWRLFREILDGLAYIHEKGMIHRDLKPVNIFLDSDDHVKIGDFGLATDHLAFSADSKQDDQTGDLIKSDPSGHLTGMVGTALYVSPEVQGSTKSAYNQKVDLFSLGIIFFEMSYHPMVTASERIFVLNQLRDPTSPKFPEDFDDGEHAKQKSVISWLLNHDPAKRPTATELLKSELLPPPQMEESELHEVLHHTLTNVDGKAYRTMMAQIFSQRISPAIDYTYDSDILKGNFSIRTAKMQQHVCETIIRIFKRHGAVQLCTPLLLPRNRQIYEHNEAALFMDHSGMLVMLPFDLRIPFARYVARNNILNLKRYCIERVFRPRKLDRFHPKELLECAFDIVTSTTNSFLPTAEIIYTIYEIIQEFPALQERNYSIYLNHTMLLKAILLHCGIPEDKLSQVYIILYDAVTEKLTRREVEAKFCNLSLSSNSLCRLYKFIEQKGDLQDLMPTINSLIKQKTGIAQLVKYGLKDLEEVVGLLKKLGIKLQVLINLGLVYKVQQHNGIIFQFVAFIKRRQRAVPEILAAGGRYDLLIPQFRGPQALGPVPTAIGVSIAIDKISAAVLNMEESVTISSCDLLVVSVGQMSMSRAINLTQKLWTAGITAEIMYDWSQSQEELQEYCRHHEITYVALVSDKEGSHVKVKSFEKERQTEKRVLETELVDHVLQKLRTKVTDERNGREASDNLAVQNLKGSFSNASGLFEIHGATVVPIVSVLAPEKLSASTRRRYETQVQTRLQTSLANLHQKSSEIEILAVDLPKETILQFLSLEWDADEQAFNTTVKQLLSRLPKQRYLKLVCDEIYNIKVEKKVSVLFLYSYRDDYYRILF

CDK9 (human) = CDK9 (human) (UniProt P50750)
STK36 (human) = STK36 (human) (UniProt Q9NRP7)
LTK (human) = LTK (human) (UniProt P29376)
ERBB4 (human) = ERBB4 (human) (UniProt Q15303)
RPS6KA5 KD1 (human) = RPS6KA5 KD1 (human) (UniProt O75582)
RIPK4 (human) = RIPK4 (human) (UniProt P57078)
Chain of RIPK4 (human) (P57078 whole entry, looked up): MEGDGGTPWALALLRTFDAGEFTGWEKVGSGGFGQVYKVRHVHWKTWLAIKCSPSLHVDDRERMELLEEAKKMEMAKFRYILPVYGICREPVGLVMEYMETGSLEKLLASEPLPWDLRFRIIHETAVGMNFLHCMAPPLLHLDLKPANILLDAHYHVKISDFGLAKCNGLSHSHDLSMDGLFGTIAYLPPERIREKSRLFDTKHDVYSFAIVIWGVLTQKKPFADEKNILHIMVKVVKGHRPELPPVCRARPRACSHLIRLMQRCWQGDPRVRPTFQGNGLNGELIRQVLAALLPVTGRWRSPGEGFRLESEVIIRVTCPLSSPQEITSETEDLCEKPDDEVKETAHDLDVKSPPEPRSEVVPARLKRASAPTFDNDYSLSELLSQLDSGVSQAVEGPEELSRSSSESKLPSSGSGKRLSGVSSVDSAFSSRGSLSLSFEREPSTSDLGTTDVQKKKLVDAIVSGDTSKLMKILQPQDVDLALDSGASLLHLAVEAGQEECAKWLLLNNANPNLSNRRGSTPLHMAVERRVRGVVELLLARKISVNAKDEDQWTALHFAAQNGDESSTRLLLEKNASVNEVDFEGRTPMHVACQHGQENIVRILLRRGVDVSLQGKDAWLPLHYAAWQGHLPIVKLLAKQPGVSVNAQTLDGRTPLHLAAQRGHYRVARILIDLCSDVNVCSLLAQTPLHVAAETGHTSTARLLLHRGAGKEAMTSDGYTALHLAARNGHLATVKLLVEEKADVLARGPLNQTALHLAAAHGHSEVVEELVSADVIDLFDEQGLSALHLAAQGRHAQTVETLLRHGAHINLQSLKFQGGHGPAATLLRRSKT

NIM1 (human) = NIM1 (human) (UniProt Q8IY84)
PRKCH (human) = PRKCH (human) (UniProt P24723)
CAMK2A (human) = CAMK2A (human) (UniProt Q9UQM7)
MAPK6 (human) = MAPK6 (human) (UniProt Q16659)

- kinase still bound, per cent of control (SLK (human)): 8.7%
- kinase still bound, per cent of control (SIK3 (human)): 86%
- kinase still bound, per cent of control (NLK (human)): 92%
- kinase still bound, per cent of control (STK17B (human)): 100%
- kinase still bound, per cent of control (CSNK1D (human)): 94%
- kinase still bound, per cent of control (CDK18 (human)): 7.4%
- kinase still bound, per cent of control (ROCK2 (human)): 100%
- kinase still bound, per cent of control (PRKAA1 (human)): 61%
- kinase still bound, per cent of control (NUAK1 (human)): 90%
- kinase still bound, per cent of control (CDK17 (human)): 12%
- kinase still bound, per cent of control (TLK2 (human)): 62%
- kinase still bound, per cent of control (CDC2L2 (human)): 100%
- kinase still bound, per cent of control (IKBKB (human)): 83%
- kinase still bound, per cent of control (CDK3 (human)): 14%
- kinase still bound, per cent of control (CAMK1D (human)): 76%
- kinase still bound, per cent of control (STK32B (human)): 100%
- kinase still bound, per cent of control (FLT3 (human)): 93%
- kinase still bound, per cent of control (CDK11B (human)): 100%
- kinase still bound, per cent of control [1]: 90%
- kinase still bound, per cent of control (EPHA6 (human)): 100%
- kinase still bound, per cent of control (BMPR1A (human)): 100%
- kinase still bound, per cent of control (CAMK2B (human)): 55%
- kinase still bound, per cent of control (CDC42BPB (human)): 97%
- kinase still bound, per cent of control (PHKG1 (human)): 100%
- kinase still bound, per cent of control [2]: 32%
- kinase still bound, per cent of control (NTRK1 (human)): 77%
- kinase still bound, per cent of control (MET (human)): 79%
- kinase still bound, per cent of control (PLK2 (human)): 100%
- kinase still bound, per cent of control (ULK2 (human)): 96%
- kinase still bound, per cent of control (ADCK4 (human)): 100%
- kinase still bound, per cent of control [3]: 100%
- kinase still bound, per cent of control (CDK9 (human)): 92%
- kinase still bound, per cent of control (STK36 (human)): 100%
- kinase still bound, per cent of control (LTK (human)): 100%
- kinase still bound, per cent of control (ERBB4 (human)): 100%
- kinase still bound, per cent of control (RPS6KA5 KD1 (human)): 98%
- kinase still bound, per cent of control (RIPK4 (human)): 100%
- kinase still bound, per cent of control (NIM1 (human)): 100%
- kinase still bound, per cent of control (PRKCH (human)): 79%
- kinase still bound, per cent of control (CAMK2A (human)): 36%
- kinase still bound, per cent of control (MAPK6 (human)): 100%
Structure (SMILES): Cn1cc(C2=C(c3ccc(Cl)cc3Cl)C(=O)NC2=O)c2ccccc21
- kinase still bound, per cent of control (NEK9 (human)): 100%
